Assay results taken from publication PMC10620162, “Structure—yeast α-glucosidase inhibitory activity relationship of 9-O-berberrubine carboxylates” (Scientific Reports, 2023).
Read-outs that look alike come from different tables or passages of the source.

Molecular target: T1, yeast α-glucosidase (Saccharomyces cerevisiae, UniProt P53341)
T1 construct: purchased Sigma Aldrich
Assay: biochemical
Conditions: for inhibition at 50 µM: read-out: Inhibition at 50 μM (%), 50 μM
Procedure: Berberrubine derivatives will be assayed for yeast α-glucosidase inhibitory activity. The protocol described by Ramadhan et al. will be used[37]. Briefly, yeast α-glucosidase (0.1 U/mL) and substrate (1 mM p-nitrophenyl-α-D-glucopyranoside) were dissolved in 0.1 M phosphate buffer (pH 6.9). A 10 μL test sample was pre-incubated with α-glucosidase (40 μL) at 37 °C for 10 min. A substrate solution (50 μL) was then added to the reaction mixture and incubated at 37 °C for an additional 20 min, and terminated by adding 1 M Na2CO3 solution (100 μL). […] The percentage inhibition of activity was calculated as follows: % Inhibition = [(A0 − A1)/A0] × 100, where: A0 is the absorbance without the sample; A1 is the absorbance with the sample. The IC50 value was deduced from the plot of % inhibition versus the concentration of the test sample.

T1 sequence (P53341 whole entry): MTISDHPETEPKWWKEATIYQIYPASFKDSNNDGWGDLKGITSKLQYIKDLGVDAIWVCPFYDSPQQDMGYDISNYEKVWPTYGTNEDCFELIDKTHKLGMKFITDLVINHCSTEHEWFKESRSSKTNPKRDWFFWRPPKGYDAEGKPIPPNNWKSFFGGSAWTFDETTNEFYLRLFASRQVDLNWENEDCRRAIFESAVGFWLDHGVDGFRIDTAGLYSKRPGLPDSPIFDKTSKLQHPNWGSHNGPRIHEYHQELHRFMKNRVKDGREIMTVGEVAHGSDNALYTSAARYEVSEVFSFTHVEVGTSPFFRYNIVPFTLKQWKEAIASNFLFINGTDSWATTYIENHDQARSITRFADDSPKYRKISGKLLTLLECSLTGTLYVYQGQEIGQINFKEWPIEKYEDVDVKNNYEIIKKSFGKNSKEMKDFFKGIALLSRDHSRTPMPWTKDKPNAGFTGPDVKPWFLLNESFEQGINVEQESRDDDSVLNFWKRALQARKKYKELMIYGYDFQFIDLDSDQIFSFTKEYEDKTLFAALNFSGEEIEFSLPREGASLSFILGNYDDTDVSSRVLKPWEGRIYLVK

| SMILES | inhibition at 50 µM [%] | IC50 [µM] | Inhibition at 50 μM (%) (50 μM) | IC50 (read-out: IC50) [µM] |
| --- | --- | --- | --- | --- |
| COc1ccc2cc3[n+](cc2c1O)CCc1cc2c(cc1-3)OCO2 [BBRB, 9-hydroxy-10-methoxy-5,6-dihydro-[1,3]dioxolo[4,5-g]isoquinolino[3,2-a]isoquinolin-7-ium chloride, reference compound] | < 0 |  |  |  |
| COc1ccc2cc3[n+](cc2c1OC(=O)c1ccccc1)CCc1cc2c(cc1-3)OCO2.[Cl-] [Compound 1, 9-(benzoyloxy)-10-methoxy-5,6-dihydro-[1,3]dioxolo[4,5-g]isoquinolino[3,2-a]isoquinolin-7-ium chloride] | 58 | 25.3 ± 2.63 | 57.67 |  |
| COc1ccccc1C(=O)Oc1c(OC)ccc2cc3[n+](cc12)CCc1cc2c(cc1-3)OCO2 [Compound 2, 10-methoxy-9-((2-methoxybenzoyl)oxy)-5,6-dihydro-[1,3]dioxolo[4,5-g]isoquinolino[3,2-a]isoquinolin-7-ium chloride] | 79.1 | 19.5 ± 1.62 |  |  |
| COc1cccc(C(=O)Oc2c(OC)ccc3cc4[n+](cc23)CCc2cc3c(cc2-4)OCO3)c1 [Compound 3, 10-methoxy-9-((3-methoxybenzoyl)oxy)-5,6-dihydro-[1,3]dioxolo[4,5-g]isoquinolino[3,2-a]isoquinolin-7-ium chloride] | 89.7 | 11.6 ± 1.19 |  |  |
| COc1ccc(C(=O)Oc2c(OC)ccc3cc4[n+](cc23)CCc2cc3c(cc2-4)OCO3)cc1 [Compound 4, 10-methoxy-9-((4-methoxybenzoyl)oxy)-5,6-dihydro-[1,3]dioxolo[4,5-g]isoquinolino[3,2-a]isoquinolin-7-ium chloride] | 80 | 18.4 ± 1.31 |  |  |
| COc1ccc2cc3[n+](cc2c1OC(=O)c1cccc(O)c1)CCc1cc2c(cc1-3)OCO2 [Compound 5, 9-((3-hydroxybenzoyl)oxy)-10-methoxy-5,6-dihydro-[1,3]dioxolo[4,5-g]isoquinolino[3,2-a]isoquinolin-7-ium chloride] | 98.1 |  |  | 7.51 ± 0.42 |
| COc1ccc(C(=O)Oc2c(OC)ccc3cc4[n+](cc23)CCc2cc3c(cc2-4)OCO3)cc1OC [Compound 6, 9-((3,4-dimethoxybenzoyl)oxy)-10-methoxy-5,6-dihydro-[1,3]dioxolo[4,5-g]isoquinolino[3,2-a]isoquinolin-7-ium chloride] | 73.9 | 19.1 ± 1.01 |  |  |
| COc1ccc2cc3[n+](cc2c1OC(=O)c1ccc2c(c1)OCO2)CCc1cc2c(cc1-3)OCO2 [Compound 7, 9-((benzo[d][1,3]dioxole-5-carbonyl)oxy)-10-methoxy-5,6-dihydro-[1,3]dioxolo[4,5-g]isoquinolino[3,2-a]isoquinolin-7-ium chloride] | 99.7 |  |  | 6.44 ± 0.5 |
| COc1cc(C(=O)Oc2c(OC)ccc3cc4[n+](cc23)CCc2cc3c(cc2-4)OCO3)cc(OC)c1OC [Compound 8, 10-methoxy-9-((3,4,5-trimethoxybenzoyl)oxy)-5,6-dihydro-[1,3]dioxolo[4,5-g]isoquinolino[3,2-a]isoquinolin-7-ium chloride] | 72 | 23.9 ± 1.87 |  |  |
| COc1ccc2cc3[n+](cc2c1OC(=O)c1ccccc1Cl)CCc1cc2c(cc1-3)OCO2 [Compound 10, 9-((2-chlorobenzoyl)oxy)-10-methoxy-5,6-dihydro-[1,3]dioxolo[4,5-g]isoquinolino[3,2-a]isoquinolin-7-ium chloride] | 88.5 | 12.2 ± 0.82 |  |  |
| COc1ccc2cc3[n+](cc2c1OC(=O)c1cccc(Cl)c1)CCc1cc2c(cc1-3)OCO2 [Compound 11, 9-((3-chlorobenzoyl)oxy)-10-methoxy-5,6-dihydro-[1,3]dioxolo[4,5-g]isoquinolino[3,2-a]isoquinolin-7-ium chloride] | 95.5 |  |  | 9.43 ± 0.8 |
| COc1ccc2cc3[n+](cc2c1OC(=O)c1ccc(Cl)cc1)CCc1cc2c(cc1-3)OCO2 [Compound 12, 9-((4-chlorobenzoyl)oxy)-10-methoxy-5,6-dihydro-[1,3]dioxolo[4,5-g]isoquinolino[3,2-a]isoquinolin-7-ium chloride] | 96.5 | 10.6 ± 0.6 |  |  |
| COc1ccc2cc3[n+](cc2c1OC(=O)c1ccccc1F)CCc1cc2c(cc1-3)OCO2 [Compound 13, 9-((2-fluorobenzoyl)oxy)-10-methoxy-5,6-dihydro-[1,3]dioxolo[4,5-g]isoquinolino[3,2-a]isoquinolin-7-ium chloride] | 72 | 24.9 ± 1.78 |  |  |
| COc1ccc2cc3[n+](cc2c1OC(=O)c1cccc(F)c1)CCc1cc2c(cc1-3)OCO2 [Compound 14, 9-((3-fluorobenzoyl)oxy)-10-methoxy-5,6-dihydro-[1,3]dioxolo[4,5-g]isoquinolino[3,2-a]isoquinolin-7-ium chloride] | 63 | 32.8 ± 1.88 |  |  |
| COc1ccc2cc3[n+](cc2c1OC(=O)c1ccc(F)cc1)CCc1cc2c(cc1-3)OCO2 [Compound 15, 9-((4-fluorobenzoyl)oxy)-10-methoxy-5,6-dihydro-[1,3]dioxolo[4,5-g]isoquinolino[3,2-a]isoquinolin-7-ium chloride] | 73.9 | 21.3 ± 1.97 |  |  |
| COc1ccc2cc3[n+](cc2c1OC(=O)c1ccccc1Br)CCc1cc2c(cc1-3)OCO2 [Compound 16, 9-((2-bromobenzoyl)oxy)-10-methoxy-5,6-dihydro-[1,3]dioxolo[4,5-g]isoquinolino[3,2-a]isoquinolin-7-ium chloride] | 95.3 |  |  | 6.45 ± 0.52 |
| COc1ccc2cc3[n+](cc2c1OC(=O)c1ccccc1I)CCc1cc2c(cc1-3)OCO2 [Compound 17, 9-((2-iodobenzoyl)oxy)-10-methoxy-5,6-dihydro-[1,3]dioxolo[4,5-g]isoquinolino[3,2-a]isoquinolin-7-ium chloride] | 94.9 |  |  | 9.24 ± 0.5 |
| COc1ccc2cc3[n+](cc2c1OC(=O)c1ccccc1C(F)(F)F)CCc1cc2c(cc1-3)OCO2 [Compound 18, 10-methoxy-9-((2-(trifluoromethyl)benzoyl)oxy)-5,6-dihydro-[1,3]dioxolo[4,5-g]isoquinolino[3,2-a]isoquinolin-7-ium chloride] | 86.1 | 15.7 ± 1.34 |  |  |
| COc1ccc2cc3[n+](cc2c1OC(=O)c1ccccc1[N+](=O)[O-])CCc1cc2c(cc1-3)OCO2 [Compound 19, 10-methoxy-9-((2-nitrobenzoyl)oxy)-5,6-dihydro-[1,3]dioxolo[4,5-g]isoquinolino[3,2-a]isoquinolin-7-ium chloride] | 81.6 | 10.5 ± 1.03 |  |  |
| COc1ccc2cc3[n+](cc2c1OC(=O)c1ccc(C#N)cc1)CCc1cc2c(cc1-3)OCO2 [Compound 20, 9-((4-cyanobenzoyl)oxy)-10-methoxy-5,6-dihydro-[1,3]dioxolo[4,5-g]isoquinolino[3,2-a]isoquinolin-7-ium chloride] | 55.6 | 26.5 ± 2.5 |  |  |
| COc1ccc2cc3[n+](cc2c1OC(=O)c1c(Cl)cccc1Cl)CCc1cc2c(cc1-3)OCO2 [Compound 21, 9-((2,6-dichlorobenzoyl)oxy)-10-methoxy-5,6-dihydro-[1,3]dioxolo[4,5-g]isoquinolino[3,2-a]isoquinolin-7-ium chloride] | 96.6 | 5.86 ± 0.35 |  |  |
| COc1ccc2cc3[n+](cc2c1OC(=O)c1ccccc1C)CCc1cc2c(cc1-3)OCO2 [Compound 22, 10-methoxy-9-((2-methylbenzoyl)oxy)-5,6-dihydro-[1,3]dioxolo[4,5-g]isoquinolino[3,2-a]isoquinolin-7-ium chloride] | 90.6 | 18.1 ± 0.68 |  |  |
| COc1ccc2cc3[n+](cc2c1OC(=O)c1ccc(C)cc1)CCc1cc2c(cc1-3)OCO2 [Compound 23, 10-methoxy-9-((4-methylbenzoyl)oxy)-5,6-dihydro-[1,3]dioxolo[4,5-g]isoquinolino[3,2-a]isoquinolin-7-ium chloride] | 78.9 | 17.5 ± 1.11 |  |  |
| CCc1ccc(C(=O)Oc2c(OC)ccc3cc4[n+](cc23)CCc2cc3c(cc2-4)OCO3)cc1 [Compound 24, 9-((4-ethylbenzoyl)oxy)-10-methoxy-5,6-dihydro-[1,3]dioxolo[4,5-g]isoquinolino[3,2-a]isoquinolin-7-ium chloride] | 81 | 12.5 ± 0.99 |  |  |
| COc1ccc2cc3[n+](cc2c1OC(=O)c1ccc(C(C)(C)C)cc1)CCc1cc2c(cc1-3)OCO2 [Compound 25, 9-((4-(tert-butyl)benzoyl)oxy)-10-methoxy-5,6-dihydro-[1,3]dioxolo[4,5-g]isoquinolino[3,2-a]isoquinolin-7-ium chloride] | 98.9 | 3.53 ± 0.31 |  |  |
| COc1ccc2cc3[n+](cc2c1OC(=O)c1cccc2ccccc12)CCc1cc2c(cc1-3)OCO2 [Compound 27, 9-((1-naphthoyl)oxy)-10-methoxy-5,6-dihydro-[1,3]dioxolo[4,5-g]isoquinolino[3,2-a]isoquinolin-7-ium chloride] | 99.8 |  |  | 2.67 ± 0.27 |
| COc1ccc2cc3[n+](cc2c1OC(=O)/C(C)=C/c1ccccc1)CCc1cc2c(cc1-3)OCO2 [Compound 30, (E)-10-methoxy-9-((2-methyl-3-phenylacryloyl)oxy)-5,6-dihydro-[1,3]dioxolo[4,5-g]isoquinolino[3,2-a]isoquinolin-7-ium chloride] | 91.9 | 10.3 ± 0.84 |  |  |
| COc1ccc2cc3[n+](cc2c1OC(=O)/C=C/c1ccc2c(c1)OCO2)CCc1cc2c(cc1-3)OCO2 [Compound 31, (E)-9-((3-(benzo[d][1,3]dioxol-5-yl)acryloyl)oxy)-10-methoxy-5,6-dihydro-[1,3]dioxolo[4,5-g]isoquinolino[3,2-a]isoquinolin-7-ium chloride] | 98.9 |  |  | 4.64 ± 0.55 |
